Data published in ChEMBL document CHEMBL3098004, “Asymmetric synthesis and receptor activity of chiral simplified resiniferatoxin (sRTX) analogues as transient receptor potential vanilloid 1 (TRPV1) ligands” (Bioorg Med Chem Lett, 2014).

Legend:
Assay type in all cases: cell-based; call rule not given here
[1] = target: T1, Transient receptor potential cation channel subfamily V member 1 (Homo sapiens, UniProt Q8NER1); assay: Agonist activity at human TRPV1 expressed in CHO cells assessed as 45Ca2+ uptake after 20 mins by liquid scintillation counting analysis
T1 sequence (Q8NER1 whole entry): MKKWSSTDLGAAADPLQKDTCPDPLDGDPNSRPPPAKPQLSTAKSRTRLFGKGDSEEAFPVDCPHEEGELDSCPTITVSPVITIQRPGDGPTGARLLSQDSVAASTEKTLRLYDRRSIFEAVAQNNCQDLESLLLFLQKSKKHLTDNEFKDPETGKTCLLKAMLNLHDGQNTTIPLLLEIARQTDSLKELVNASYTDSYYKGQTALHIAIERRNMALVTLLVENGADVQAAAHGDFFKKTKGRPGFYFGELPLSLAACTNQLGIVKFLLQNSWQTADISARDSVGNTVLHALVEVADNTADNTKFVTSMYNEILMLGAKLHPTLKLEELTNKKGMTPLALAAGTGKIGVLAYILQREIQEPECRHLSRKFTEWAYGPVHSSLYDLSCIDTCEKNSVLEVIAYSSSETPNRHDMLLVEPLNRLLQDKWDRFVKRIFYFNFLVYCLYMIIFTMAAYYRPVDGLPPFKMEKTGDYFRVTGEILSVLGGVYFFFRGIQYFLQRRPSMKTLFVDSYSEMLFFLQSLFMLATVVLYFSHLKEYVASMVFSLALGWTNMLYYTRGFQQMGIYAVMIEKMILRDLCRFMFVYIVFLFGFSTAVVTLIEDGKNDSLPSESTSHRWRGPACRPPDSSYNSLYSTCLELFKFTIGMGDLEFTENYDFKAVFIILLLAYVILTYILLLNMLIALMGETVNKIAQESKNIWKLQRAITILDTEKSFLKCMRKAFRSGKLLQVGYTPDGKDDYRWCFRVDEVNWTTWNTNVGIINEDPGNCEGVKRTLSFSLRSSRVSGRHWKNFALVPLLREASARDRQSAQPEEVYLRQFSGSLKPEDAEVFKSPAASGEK

[2] = target: T1, Transient receptor potential cation channel subfamily V member 1; assay: Antagonist activity at human TRPV1 expressed in CHO cells assessed as inhibition of RTX-induced 45Ca2+ uptake after 20 mins by liquid scintillation counting analysis
[3] = target: T1, Transient receptor potential cation channel subfamily V member 1; assay: Displacement of [3H]RTX from human TRPV1 expressed in CHO cells after 60 mins by liquid scintillation counting analysis

Structure (SMILES)	EC50 ([1]; read-out: EC50) [nM]	Ki ([2]; cho)	Ki [3] [nM]	EC50 ([1]; cho)	Ki ([2]; read-out: Ki) [nM]
COc1cc(CNC(=S)NC[C@H](COC(=O)C(C)(C)C)Cc2ccc(C(C)(C)C)cc2)ccc1O	0.99	Not Active	3.06	–	–
COc1cc(CNC(=S)NC[C@@H](COC(=O)C(C)(C)C)Cc2ccc(C(C)(C)C)cc2)ccc1O	9.55	Not Active	6.58	–	–
CC(C)(C)C(=O)OC[C@@H](CNC(=S)NCc1ccc(NS(C)(=O)=O)c(F)c1)Cc1ccc(C(C)(C)C)cc1	–	–	17.2	Not Active	94
CC(C)(C)C(=O)OC[C@H](CNC(=S)NCc1ccc(NS(C)(=O)=O)c(F)c1)Cc1ccc(C(C)(C)C)cc1	–	–	63	Not Active	161
CC(C)(C)C(=O)OCC(CNC(=S)NCc1ccc(NS(C)(=O)=O)c(F)c1)Cc1ccc(C(C)(C)C)cc1 (racemic)	–	–	23	Not Active	122
COc1cc(CNC(=S)NCC(COC(=O)C(C)(C)C)Cc2ccc(C(C)(C)C)cc2)ccc1O (racemic)	1.34	Not Active	6.1	–	–
C=C(C)[C@]12C[C@@H](C)[C@@]34O[C@](Cc5ccccc5)(O[C@@H]1[C@@H]3C=C(COC(=O)Cc1cc(I)c(O)c(OC)c1)C[C@]1(O)C(=O)C(C)=C[C@@H]41)O2 [IODORESINIFERATOXIN]	–	–	–	Not Active	–
C=C(C)[C@]12C[C@@H](C)[C@@]34O[C@](Cc5ccccc5)(O[C@@H]1[C@@H]3C=C(COC(=O)Cc1ccc(O)c(OC)c1)C[C@]1(O)C(=O)C(C)=C[C@@H]41)O2 [RESINIFERATOXIN]	–	Not Active	–	–	–
